Experimental data from patent US20070122810A1 (priority 2003, published 2007).
Where two headings read alike, the source gives them in different places.

Test system: tumor cell suspension (glioma samples)
[1] = FIG. 5, example B, tumor located near normal brain tissue in phylogenetic tree, 8 hours incubation, about 1/10 of highest blood concentration
[2] = FIG. 5, example A, tumor located near normal brain tissue in phylogenetic tree, 8 hours incubation, about 1/10 of highest blood concentration

Method: These drugs were classified into five following categories by pharmacological mechanism. • Alkylating agents: • 4-hydroperoxy-cyclophosphamide (CPM)(1 μg/ml), 4-hydroperoxy-ifosfamide (IFOS) (I μg/ml), melphalan (MPL) (0.5 μg/ml), carboquone (CQ) (0.1 μg/ml), nimustine (ACNU) (2 μg/ml), ranimustine (MCNU) (2 μg/ml), cisplatinum (CDDP) (0.5 μg/ml) and carboplatin (JM-8) (4 μg/ml) • Antimetabolites: • Methotrexate (MTX) (3 μg/ml), 5-fluoro uracil (5-FU) (10 μg/ml), thioinosine (6-MRP) (3μg/ml) and cytosine arabinoside (CA) (4 μg/ml) • Antibiotics: • Mitomycin C (MMC) (0.2 μg/ml), bleomycin (BLM) (1 μg/ml), peplomycin (PEP) (0.5 μg/ml), chromomycin A3 (TM) (0.01 μg/ml) and neocarsinostatin (NCS) (0.15 μg/ml) • Topoisomerase inhibitors: • Actinomycin D (ACD) (0.01 μg/ml), aclarubicin (ACR) (0.6 μg/ml), adriamycin (ADM) (0.3 μg/ml), daunomycin (DM) (0.6 μg/ml), pirarubicin (THP) (0.3 μg/ml), epirubicin (4′-EPI) (0.4 μg/ml), mitoxantrone (MIT) (0.06 μg/ml), etoposide (VP-16) (3 μg/ml) and camptothecine (CPT-11) (3 μg/ml) • Microtubule Inhibitors: • Vincristine (VCR) (0.1 μg/ml), vinblastin (VLB) (0.1 μg/ml), vindesin (VDS) (0.1 μg/ml) and paclitaxel (TAX) (0.6 μg/ml)
The in vitro concentrations of these drugs were set to about 1/10 of the highest blood concentration when administered at a dose clinically recommended, and differences in the reaction by dose were evaluated for 10 selected drugs (CPM, ACNU, CDDP, PEP, ADM, VP-16, CA, TAX, VCR). The cultured samples of these were mixed in a phosphate buffered saline (pH 7.2)/0.1% Triton X-100/0.1 mg/ml RNase/0.01% sodium azide for 15 minutes and subsequently mixed with 50 g/ml of propidium iodide (Sigma,St.Louis, Mo.) for 5 minutes. The isolated nuclei were analyzed with flow cytometer (FACScan:Becton Dickinson, Mountain view, Calif.). The efficacy of a drug was judged by shifting the nucleus of apoptosis to a low diploid (sub-G1) region and comparing reverse decrease of the peak of the thus incorporated diploid with decrease of untreated control cells. […] Decomposition and condensation of chromatin were judged as a marker of apoptosis and quantitatively evaluated by Fisher's exact test.

| SMILES | efficacy of drug in drug sensitivity test [1] | efficacy of drug in drug sensitivity test [2] | efficacy of drug in drug sensitivity test (FIG. 5, example C, tumor located slightly away from normal brain tissue in phylogenetic tree) | drug sensitivity of tumors having sensitivity to ACNU (tumors having sensitivity to ACNU) |
| --- | --- | --- | --- | --- |
| CC(=O)O[C@H]1C(=O)[C@@]2(C)[C@H]([C@H](OC(=O)c3ccccc3)[C@]3(O)C[C@H](OC(=O)[C@H](O)[C@@H](NC(=O)c4ccccc4)c4ccccc4)C(C)=C1C3(C)C)[C@]1(OC(C)=O)CO[C@@H]1C[C@@H]2O [TAX, paclitaxel] | effective | – | – | – |
| O=P1(N(CCCl)CCCl)NC(OO)CCO1 (stereo not shown) [CPM] | effective | effective | – | – |
| Cc1ncc(CNC(=O)N(CCCl)N=O)c(N)n1 [ACNU, nimustine] | effective | effective | – | – |
| CC[C@]1(O)C[C@H]2CN(CCc3c([nH]c4ccccc34)[C@@](C(=O)OC)(c3cc4c(cc3OC)N(C=O)[C@H]3[C@@](O)(C(=O)OC)[C@H](OC(C)=O)[C@]5(CC)C=CCN6CC[C@]43[C@@H]65)C2)C1 [VCR, vincristine] | – | – | effective | generally resistant |
